Source: US4416870A, “Antibiotic compound, its production and its medicinal use” (Bayer Aktiengesellschaft, priority 1981, dated 1983)
*1 amine or outer side, *2 acyl side, *3 side chain or, on linkers, in order; H or OH if unused. Where a SMILES comes first, the peptide text is derived from it. [ ]: non-standard residue; d: D form. ξ: configuration not given here. X1 = Cn1c(=O)ccn(C2SC(C(O)C(N[*:1])C(=O)[*:2])C(O)C2O)c1=O; ξOrn(N(OH)Ac) = CC(=O)N(O)CCCC(N)C(=O)O; ξS = NC(CO)C(=O)O

Assays:
[1] = physchem; conditions: organic solvent or mixture
[2] = test system: E. coli Neumann; assay: Animal test (mice), ED100 after intraperitoneal infection and subcutaneous treatment (Example B); assay type: in vivo, mice infected with E. coli; conditions: Escherichia coli, sc, dose at which all infected and treated animals survive
Protocol: (§1) BAYi 3265 component A animal test (mice) | ED100 after intraperitoneal | infection and subcutaneous |Infecting germ treatment in mg/kg The animals were infected with a quantity of bacteria, which quantity led to the death of the control animals within 24 hours. The ED100 was the dose which allowed all infected and treated animals to survive.

[3] = test system: E. coli 205 Kn; assay: as above; assay type: in vivo, mice infected with E. coli; conditions: Escherichia coli, sc, dose at which all infected and treated animals survive
Protocol: as §1

[4] = test system: Klebsiella pneumoniae 63; assay: as above; assay type: in vivo, mice infected with Klebsiella pneumoniae; conditions: sc, dose at which all infected and treated animals survive
Protocol: as §1

[5] = test system: E. coli Neumann; assay: White mouse, ED100 (complete cure) on infection with E. coli Neumann, single subcutaneous application; assay type: in vivo, white mouse infected with E. coli; conditions: Escherichia coli, sc, 0.5 h, once, 30 minutes after infection, subcutaneously
Protocol: For the white mouse, an ED100 (complete cure) is found in vivo, at 3 mg of antibiotic/kg of body weight, on infection with E. coli Neumann; therapy: application once, 30 minutes after infection, subcutaneously.

solubility ([1]; chloroform): < 0.1 mg/mL | solubility ([1]; dimethylformamide): < 10 mg/mL | solubility ([1]; dimethylsulphoxide): < 10 mg/mL | solubility ([1]; ether): < 0.1 mg/mL | solubility ([1]; ethyl acetate): < 0.1 mg/mL | solubility ([1]; methanol): < 10 mg/mL | solubility ([1]; petroleum ether): < 0.1 mg/mL
Structure (SMILES): CC(=O)N(O)CCCC(N)C(=O)NC(CCCN(O)C(C)=O)C(=O)NC(CCCN(O)C(C)=O)C(=O)NC(CO)C(=O)NC(C(=O)O)C(O)C1SC(n2ccc(=O)n(C)c2=O)C(O)C1O (centres unmarked) [BAYi 3265 Component A] (H-[ξOrn(N(OH)Ac)][ξOrn(N(OH)Ac)][ξOrn(N(OH)Ac)][ξS][X1]-OH)
ED100 [2]: 0.5 mg/kg | ED100 [3]: 0.1 mg/kg | ED100 [4]: 0.2 mg/kg | ED100 [5]: 3 mg/kg
